Reference: patent US10494402B2, “Peptides that stimulate subcutaneous adipogenesis” (The Regents of the University of California, priority 2012, dated 2019)

Legend:
Type in all cases: cell-based
Human pre-adipocytes = assay: Adipogenesis in 3D collagen gel culture; settings: 3D collagen gels in the presence of adipogenic cocktail
Protocol: The adipogenic activity of peptide B (SEQ ID NO:2) was also examined using a three-dimensional (3D) culture system that models human skin.
Human pre-adipocytes were cultured in 3D collagen gels in the presence of the adipogenic cocktail described above (Adipocyte Differentiation Medium (ZenBio catalog no. DM-2)) and exposed to peptide B (SEQ ID NO: 2). […] The 3D results predict the ability of the B peptide to promote adipogenesis in vivo.

[1] = test system: human adipose-derived stem cells (h-ADSCs); assay: Differentiation of human adipose-derived stem cells (h-ADSCs); settings: for adipogenesis, absorbance of extracted Oil Red O: 5 μg/ml in adipogenic cocktail in the absence of insulin and PPARγ agonist, two weeks; for adipogenesis (micrographs) in the absence of PPARγ agonist / adipogenesis (micrographs) in the presence of PPARγ agonist: B peptide 5 μg/ml, 6-mer 5 μg/ml or 20 μg/ml
Text: The Adipocyte Differentiation Medium contained DMEM/Ham's F-12 (1:1 v/v), HEPES pH 7.4, fetal bovine serum, biotin, penicillin, streptomcyin, amphotericin B, pantothenate, human insulin, dexamethasone, isobutylmethylxanthine (IBMX) and a PPARγ agonist. This positive stimulus was used as the positive control. […] The upper right panel and the lower left panel of FIG. 14 provide two different fields of view of the h-ASDCs exposed to the adipogenic cocktail at 4× magnification.
Monolayers that were maintained in Preadipocyte Medium only (ZenBio catalog no. PM-1, containing DMEM/Ham's F-12 (1:1 v/v), HEPES 7.4, fetal bovine serum, penicillin, streptomcyin, and amphotericin B) or monolayers that were exposed to the adipogenic cocktail without insulin and PPARγ agonist were both used as negative controls. […] The negative controls shown in FIG. 15 were exposed to Preadipocyte Medium only. […] The adipogenic peptides (peptide B and the KSEVSK 6-mer) were mixed into adipogenic cocktail that lacked the PPARγ agonist and/or insulin and used as the experimental condition.
To quantify the adipogenic activity of the KSEVSK 6-mer (SEQ ID NO: 3) and the B peptide (SEQ ID NO: 2), h-ADSCs were exposed to 5 μg/ml of these peptides in the adipogenic cocktail in the absence of insulin and PPARγ agonist). The experiment was terminated two weeks after the addition of adipogenic mixtures. At this time, photographs of monolayers were taken and the lipid droplet accumulation was quantified by measuring the absorbance of extracted Oil Red 0. […] The peptides stimulated adipogenesis to a similar extent when the PPARγ agonist alone or both the PPARγ agonist and insulin were deleted from the adipogenic cocktail (not shown).
In further studies using h-ADSCs, two different protocols were used. In the first of these protocols, h-ADSCs were exposed to the adipogenic cocktail plus the KSEVSK 6-mer (SEQ ID NO: 3) or B peptide (SEQ ID NO: 2) at concentrations of 5 μg/ml or 20 μg/ml. […] In the second of these protocols, h-ADSCs were exposed to adipogenic cocktail in which the PPARγ agonist was replaced with either the KSEVSK 6-mer or the B peptide at concentrations of 5 μg/ml or 20 μg/ml. […] Statistical analysis were performed compared to negative control. Data presented as mean±standard error (n=3).

[2] = test system: human papillary fibroblasts (HPF); assay: Transdifferentiation of primary human dermal fibroblasts, papillary; settings: 5 μg/ml; peptide replaced insulin
Protocol: The B peptide and the KSEVSK 6-mer were also tested for their adipogenic effect on primary human dermal fibroblasts from the upper (papillary) and lower (reticular) dermal layers. The primary human fibroblasts were obtained from dermatome sections of biopsies from human volunteers. Cells were cultured and exposed to adipogenic medium. In these experiments, the B peptide and the KSEVSK 6-mer replaced insulin as the adipogenic stimulus. The peptides were used at a concentration of 5 μg/ml. Adipogenesis was assessed by Oil Red O staining. […] White arrows show fat droplets.

2D human Pre-adipocytes = assay: Adipogenic potential ranking in 2D tissue culture, human pre-adipocytes; settings: scale of 0-5, 5 highest
Protocol: Examples of the adipogenic effects of RHAMM antagonists (peptide B (SEQ ID NO: 2), peptide P15-1 (SEQ ID NO. 1), and the antibody to peptide B) are summarized in Table 1. Peptide P15-1, peptide B, and a RHAMM antibody were assayed for their effects on pre-adipocyte stem cells in culture and when injected into the dermis of aged rats. Reagents were ranked on a scale of 0-5 with 5 representing the highest possible score and a completely filled in Harvey ball. “2D” refers to two-dimensional tissue culture.

[3] = test system: rat mesenchymal stem cells; assay: Adipogenesis Assay 2 (dexamethasone/insulin/indomethacin induction, then peptide; Oil Red O or BODIPY); settings: Assay 2
Protocol: Reagents: The dexamethasone, insulin, and Oil Red O solutions were the same as described above for assay 1. Indomethacin Solution contained 10 mM indomethacin in methanol. The BODIPY 493/503 dye was used at a concentration of 4 μM.
Adipogenesis Maintenance Media was prepared as described above.
Adipogenesis Induction Media: To prepare 501 mL of Adipogenesis Induction Media, 50 μL of the 10 mM stock solution of dexamethasone, 500 μL of the 10 mg/ml stock solution of insulin, 5 ml of a 10 mM stock solution of indomethacin, and 5 mL of a 100× stock solution of penicillin and streptomycin were added to 490 mL of mesenchymal stem cell expansion media.
Pre-adipocyte stem cells, bone marrow mesenchymal stem cells and fibroblasts such as dermal reticular and papillary fibroblasts were propagated using standard tissue culture methods. Cells were trypsinized to remove cells from the substratum, the trypsin was neutralized, and cells were counted using a hemocytometer. Cells were resuspended at 60,000 cells/ml in low glucose DMEM containing 10% calf serum. 1 mL of cell suspension per well was plated in a 24-well plate, with several wells left empty for blank well staining.
Cells were incubated overnight and had reached confluency at this point. Approximately 1.8 ml of media was removed from each well and replaced with 2 ml Adipogenesis Induction Media. For negative control wells, expansion medium only was used at this step and for subsequent media changes. For all media changes, media was replaced as gently as possible to avoid disturbing the monolayer.
Media was removed and replaced with 2 ml of maintenance medium containing either RHAMM antagonist peptides (experimental group) or insulin (concentration as in the induction medium used as positive control). […]
Media was removed and BODIPY or Oil Red O staining was performed as described above for assay 1.
As described above in Example 1, two different adipogenesis assays were used herein to assess the adipogenic effects of the peptides in rat mesenchymal stem cells. Assay 1 is an assay that is typically used to promote transdifferentiation of fibroblasts into adipocytes, whereas Assay 2 is typically used to promote differentiation of multi-potential mesenchymal progenitor cells into adipocytes. Immortalized rat bone marrow mesenchymal stem cells were used for both assays. These cells contain cells of different lineages, including fibroblasts, pre-adipocytes, pre-chondrocytes and pre-osteoblasts. Thus, Assay 1 was used to promote transdifferentiation of the fibroblast lineages into adipocytes and Assay 2 was used to promote differentiation of the pre-adipocytes into adipocytes.
As described in Example 1 above, the priming stimulus for Assay 1 includes IBMX (3-isobutyl-1-methylxanthine) and dexamethasone, and then insulin as the final adipogenic stimulus. The priming stimulus for assay 2 includes IBMX, dexamethasone and indomethacin, and then insulin as the final adipogenic stimulus.

With KLKDENSQLKSEVSK [peptide B] the “adipogenesis (light refractory lipid droplets)” value (Human pre-adipocytes) was “promoted adipogenesis”, the “adipogenesis, absorbance of extracted Oil Red O” value [1] was “strongly promoted adipogenesis compared to the negative control (p<0.05)” and the “adipogenesis (micrographs) in the absence of PPARγ agonist” value [1] was “underwent adipogenesis”. The “adipogenesis (micrographs) in the presence of PPARγ agonist” value [1] was “underwent adipogenesis”, the “transdifferentiation into adipocytes, Oil Red O staining” value [2] was “had no effect” and the “adipogenic potential, 2D human Pre-adipocytes” value (2D human Pre-adipocytes) was 5. For the same substance, the “Fold adipogenic induction vs. negative control” value [3] was 4.0 and the “Specific activity (activity/1000 daltons)” value [3] was 2.17 activity/1000 daltons.
In the case of KSEVSK [KSEVSK 6-mer], the “adipogenesis, absorbance of extracted Oil Red O” value [1] was “strongly promoted adipogenesis compared to the negative control (p<0.05)”, the “adipogenesis (micrographs) in the absence of PPARγ agonist” value [1] was “underwent adipogenesis” and the “adipogenesis (micrographs) in the presence of PPARγ agonist” value [1] was “underwent adipogenesis”. For the same substance, the “adipogenesis (lipid droplets) compared with positive control” value ([1]; two weeks after initiation, peptide in cocktail lacking PPARγ agonist and/or insulin) was “more effective at promoting adipogenesis than the positive control”, the “transdifferentiation into adipocytes, Oil Red O staining” value [2] was “had no effect” and the “Fold adipogenic induction vs. negative control” value [3] was 2.5. The “Specific activity (activity/1000 daltons)” value [3] was 3.32 activity/1000 daltons.
